# Measured values from PubChem BioAssay AID2060605 (Molecular Pharmacology Branch, DTP, NCI, 2025).
# “And” between values parts separate entries of the source, which are not always exact repeats. Equal values may be shown once.
# System: 947758-054-R-J2-PDC spheroid growth, percent test/control
# Assay: Anticancer human tumor 947758-054-R-J2-PDC patient-derived colon adenocarcinoma cell line growth inhibition [CLK]
# Settings: spheroids with HUVEC and MSC; for viability, T/C: stronger effect = lower value
# In short: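 Patient-derived tumor cells grown as complex spheroids with HUVEC endothelial cells and mesenchymal stem cells, treated with drug combinations. Concentrations descend in half-log steps from near clinical Cmax, or from 10 microM if Cmax unknown.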
# [1] = curve of first compound, second compound 0.0316 µM
# [2] = curve of first compound, second compound 0.1 µM
# [3] = curve of first compound, second compound 0.316 µM
# [4] = curve of first compound, second compound 1 µM
# [5] = curve of first compound, second compound 3.16 µM
# [6] = curve of first compound, second compound 10 µM
# [7] = second compound 0.0316 µM, first compound 0.0316 µM
# [8] = second compound 0.0316 µM, first compound 0.1 µM
# [9] = second compound 0.0316 µM, first compound 0.316 µM
# [10] = second compound 0.0316 µM, first compound 1 µM
# [11] = second compound 0.1 µM, first compound 0.0316 µM
# [12] = second compound 0.1 µM, first compound 0.1 µM
# [13] = second compound 0.1 µM, first compound 0.316 µM
# [14] = second compound 0.1 µM, first compound 1 µM
# [15] = second compound 0.316 µM, first compound 0.0316 µM
# [16] = second compound 0.316 µM, first compound 0.1 µM
# [17] = second compound 0.316 µM, first compound 0.316 µM
# [18] = second compound 0.316 µM, first compound 1 µM
# [19] = second compound 1 µM, first compound 0.0316 µM
# [20] = second compound 1 µM, first compound 0.1 µM
# [21] = second compound 1 µM, first compound 0.316 µM
# [22] = second compound 1 µM, first compound 1 µM
# [23] = second compound 3.16 µM, first compound 0.0316 µM
# [24] = second compound 3.16 µM, first compound 0.1 µM
# [25] = second compound 3.16 µM, first compound 0.316 µM
# [26] = second compound 3.16 µM, first compound 1 µM
# [27] = second compound 10 µM, first compound 0.0316 µM
# [28] = second compound 10 µM, first compound 0.1 µM
# [29] = second compound 10 µM, first compound 0.316 µM
# [30] = second compound 10 µM, first compound 1 µM
# [31] = second compound 0.0316 µM, first compound 3.16 µM
# [32] = second compound 0.0316 µM, first compound 10 µM
# [33] = second compound 0.1 µM, first compound 3.16 µM
# [34] = second compound 0.1 µM, first compound 10 µM
# [35] = second compound 0.316 µM, first compound 3.16 µM
# [36] = second compound 0.316 µM, first compound 10 µM
# [37] = second compound 1 µM, first compound 3.16 µM
# [38] = second compound 1 µM, first compound 10 µM
# [39] = second compound 3.16 µM, first compound 3.16 µM
# [40] = second compound 3.16 µM, first compound 10 µM
# [41] = second compound 10 µM, first compound 3.16 µM
# [42] = second compound 10 µM, first compound 10 µM
# 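Further: spheroids exposed to compounds for one week before readout.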
# 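Wherever viability, T/C is given: 100% = DMSO vehicle control wells.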
structure (smiles),measurement,setting,value
CCN1CCN(Cc2ccc(Nc3ncc(F)c(-c4cc(F)c5nc(C)n(C(C)C)c5c4)n3)nc2)CC1 + CNC(=O)c1ccc(Nc2nc(OC3CCCC3)c3c(-c4ccc5nc(C)oc5c4)c[nH]c3n2)c(OC)c1,IC50,[1],792 nM
same,IC50,[2],263 nM
same,IC50,[3],46 nM
same,IC50,[4],6.65 nM
same,IC50,[5],< 3.16 nM
same,IC50,[6],< 3.16 nM
same,"viability, T/C","second compound 0.0316 µM, first compound 0.00316 µM",96.1%
same,"viability, T/C","second compound 0.0316 µM, first compound 0.01 µM",94.5%
same,"viability, T/C",[7],90.7%
same,"viability, T/C",[8],73%
same,"viability, T/C",[9],61.5%
same,"viability, T/C",[10],46.9%
same,"viability, T/C","second compound 0.1 µM, first compound 0.00316 µM",102%
same,"viability, T/C","second compound 0.1 µM, first compound 0.01 µM",73.2%
same,"viability, T/C",[11],61.4%
same,"viability, T/C",[12],65.8%
same,"viability, T/C",[13],57.4%
same,"viability, T/C",[14],32.8%
same,"viability, T/C","second compound 0.316 µM, first compound 0.00316 µM",101%
same,"viability, T/C","second compound 0.316 µM, first compound 0.01 µM",71.3%
same,"viability, T/C",[15],39.5%
same,"viability, T/C",[16],60.1%
same,"viability, T/C",[17],38.9%
same,"viability, T/C",[18],22.3%
same,"viability, T/C","second compound 1 µM, first compound 0.00316 µM",59.2%
same,"viability, T/C","second compound 1 µM, first compound 0.01 µM",46.8%
same,"viability, T/C",[19],31.9%
same,"viability, T/C",[20],31%
same,"viability, T/C",[21],42.4%
same,"viability, T/C",[22],19.8%
same,"viability, T/C","second compound 3.16 µM, first compound 0.00316 µM",52.2%
same,"viability, T/C","second compound 3.16 µM, first compound 0.01 µM",32.5%
same,"viability, T/C",[23],39.8%
same,"viability, T/C",[24],34%
same,"viability, T/C",[25],33.7%
same,"viability, T/C",[26],25.1%
same,"viability, T/C","second compound 10 µM, first compound 0.00316 µM",40%
same,"viability, T/C","second compound 10 µM, first compound 0.01 µM",41.2%
same,"viability, T/C",[27],35.6%
same,"viability, T/C",[28],31.6%
same,"viability, T/C",[29],21.1%
same,"viability, T/C",[30],21.1%
Nc1ccn(C2OC(CO)C(O)C2(F)F)c(=O)n1 (stereo not drawn) + CN1CCN(c2cc(C(=O)Nc3cc4cc(-c5cnn(C)c5)ccc4cn3)ccn2)CC1,IC50,[1],33.1 nM
same,IC50,[2],< 31.6 nM
same,IC50,[3],< 31.6 nM
same,IC50,[4],< 31.6 nM
same,IC50,[5],< 31.6 nM
same,IC50,[6],< 31.6 nM
same,"viability, T/C",[7],51.6%
same,"viability, T/C",[8],9.51%
same,"viability, T/C",[9],11.7%
same,"viability, T/C",[10],13.8%
same,"viability, T/C",[31],10.8%
same,"viability, T/C",[32],6.34%
same,"viability, T/C",[11],20.8%
same,"viability, T/C",[12],6.62%
same,"viability, T/C",[13],10.4%
same,"viability, T/C",[14],10.6%
same,"viability, T/C",[33],7.69%
same,"viability, T/C",[34],7.26%
same,"viability, T/C",[15],2.49%
same,"viability, T/C",[16],1.07%
same,"viability, T/C",[17],1.17%
same,"viability, T/C",[18],0.85%
same,"viability, T/C",[35],0.53%
same,"viability, T/C",[36],3.53%
same,"viability, T/C",[19],0.13%
same,"viability, T/C",[20],0.13%
same,"viability, T/C",[21],2.17%
same,"viability, T/C",[22],0.08%
same,"viability, T/C",[37],0.45%
same,"viability, T/C",[38],0.11%
same,"viability, T/C",[23],1.66%
same,"viability, T/C",[24],0.22%
same,"viability, T/C",[25],0.38%
same,"viability, T/C",[26],0.21%
same,"viability, T/C",[39],0.27%
same,"viability, T/C",[40],0.3%
same,"viability, T/C",[27],0.27%
same,"viability, T/C",[28],0.28%
same,"viability, T/C",[29],0.31%
same,"viability, T/C",[30],0.32%
same,"viability, T/C",[41],1.07%
same,"viability, T/C",[42],0.35%
CC1COCCN1c1cc(C2(S(C)(=N)=O)CC2)nc(-c2ccnc3[nH]ccc23)n1 (stereo not drawn) + CN1CCN(c2cc(C(=O)Nc3cc4cc(-c5cnn(C)c5)ccc4cn3)ccn2)CC1,IC50,[1],8190 nM
same,IC50,[2],4290 nM
same,IC50,[3],< 31.6 nM
same,IC50,[4],< 31.6 nM
same,IC50,[5],< 31.6 nM
same,IC50,[6],< 31.6 nM
same,"viability, T/C",[7],129%
same,"viability, T/C",[8],130%
same,"viability, T/C",[9],147%
same,"viability, T/C",[10],208%
same,"viability, T/C",[31],174%
same,"viability, T/C",[32],27.1%
same,"viability, T/C",[11],156%
same,"viability, T/C",[12],161%
same,"viability, T/C",[13],134%
same,"viability, T/C",[14],111%
same,"viability, T/C",[33],59.6%
same,"viability, T/C",[34],20.6%
same,"viability, T/C",[15],4.56%
same,"viability, T/C",[16],7.68%
same,"viability, T/C",[17],5.32%
same,"viability, T/C",[18],4.07%
same,"viability, T/C",[35],7.49%
same,"viability, T/C",[36],2.19%
same,"viability, T/C",[19],0.17%
same,"viability, T/C",[20],0.18%
same,"viability, T/C",[21],0.17%
same,"viability, T/C",[22],2.01%
same,"viability, T/C",[37],2.61%
same,"viability, T/C",[38],0.13%
same,"viability, T/C",[23],0.74%
same,"viability, T/C",[24],0.2%
same,"viability, T/C",[25],0.39%
same,"viability, T/C",[26],1.46%
same,"viability, T/C",[39],1.04%
same,"viability, T/C",[40],0.96%
same,"viability, T/C",[27],1.2%
same,"viability, T/C",[28],0.28%
same,"viability, T/C",[29],1.41%
same,"viability, T/C",[30],1.13%
same,"viability, T/C",[41],1.09%
same,"viability, T/C",[42],0.51%
CC(Nc1ccc2c(c1)OCCn1cc(N3C(=O)OCC3C(F)F)nc1-2)C(N)=O (stereo not drawn),"viability, T/C",compound 0.0316 µM,106% and 109%
same,"viability, T/C",compound 0.1 µM,96.5% and 102%
same,"viability, T/C",compound 0.316 µM,99.4% and 98.8%
same,"viability, T/C",compound 1 µM,93% and 85.2%
same,"viability, T/C",compound 3.16 µM,92.2% and 93.3%
same,"viability, T/C",compound 10 µM,93.6% and 88.5%
same,IC50,curve of compound,> 10000 nM
